Among the data in US9738660B2, “Selective inhibitors for protein kinases and pharmaceutical composition and use thereof” (National Chiao Tung University, priority 2014, dated 2017) are remaining activity and IC50 values, retold here.

Structures are written as SMILES. Read-outs that look alike come from different tables or passages of the source.

Holding throughout (test): Kinase Profiler, residual kinase activity
Holding throughout (assay type): biochemical

In test [1] the target is LCK (Homo sapiens, UniProt P06239). The settings on record: read-out: percentage of the remaining kinase activity.
Chain of LCK (P06239 whole entry): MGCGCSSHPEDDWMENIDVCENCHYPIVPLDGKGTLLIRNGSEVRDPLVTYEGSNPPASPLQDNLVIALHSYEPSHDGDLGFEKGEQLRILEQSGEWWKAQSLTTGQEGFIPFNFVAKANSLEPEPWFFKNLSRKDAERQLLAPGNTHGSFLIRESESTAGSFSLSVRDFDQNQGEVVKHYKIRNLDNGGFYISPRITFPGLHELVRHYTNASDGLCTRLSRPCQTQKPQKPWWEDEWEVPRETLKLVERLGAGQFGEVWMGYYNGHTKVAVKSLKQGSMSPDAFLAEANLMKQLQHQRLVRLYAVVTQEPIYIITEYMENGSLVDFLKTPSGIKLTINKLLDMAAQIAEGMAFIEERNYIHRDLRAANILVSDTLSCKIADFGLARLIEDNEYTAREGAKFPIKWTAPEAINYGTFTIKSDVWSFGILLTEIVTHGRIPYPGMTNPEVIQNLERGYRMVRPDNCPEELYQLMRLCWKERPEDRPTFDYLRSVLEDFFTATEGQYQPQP
The target in test [2] is CHEK2 (Homo sapiens, UniProt O96017). The settings on record: read-out: percentage of the remaining kinase activity.
Chain of CHEK2 (O96017 whole entry): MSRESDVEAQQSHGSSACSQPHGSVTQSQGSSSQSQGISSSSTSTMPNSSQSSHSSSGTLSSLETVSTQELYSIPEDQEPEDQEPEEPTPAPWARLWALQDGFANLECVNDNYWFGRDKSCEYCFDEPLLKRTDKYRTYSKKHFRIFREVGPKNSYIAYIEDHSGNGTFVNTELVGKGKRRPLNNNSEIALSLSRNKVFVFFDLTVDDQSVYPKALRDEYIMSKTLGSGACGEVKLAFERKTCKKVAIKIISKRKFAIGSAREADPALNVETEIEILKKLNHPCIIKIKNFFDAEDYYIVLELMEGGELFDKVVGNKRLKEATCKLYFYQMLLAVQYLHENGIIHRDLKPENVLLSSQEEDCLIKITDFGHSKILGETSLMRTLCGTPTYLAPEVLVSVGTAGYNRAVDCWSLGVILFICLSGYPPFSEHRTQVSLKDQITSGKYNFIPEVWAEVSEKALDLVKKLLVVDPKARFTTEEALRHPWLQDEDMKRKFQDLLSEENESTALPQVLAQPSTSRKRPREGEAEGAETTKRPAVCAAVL
In test [3] the target is FGFR1 (Homo sapiens, UniProt P11362). The settings on record: read-out: percentage of the remaining kinase activity.
Chain of FGFR1 (P11362 22-822): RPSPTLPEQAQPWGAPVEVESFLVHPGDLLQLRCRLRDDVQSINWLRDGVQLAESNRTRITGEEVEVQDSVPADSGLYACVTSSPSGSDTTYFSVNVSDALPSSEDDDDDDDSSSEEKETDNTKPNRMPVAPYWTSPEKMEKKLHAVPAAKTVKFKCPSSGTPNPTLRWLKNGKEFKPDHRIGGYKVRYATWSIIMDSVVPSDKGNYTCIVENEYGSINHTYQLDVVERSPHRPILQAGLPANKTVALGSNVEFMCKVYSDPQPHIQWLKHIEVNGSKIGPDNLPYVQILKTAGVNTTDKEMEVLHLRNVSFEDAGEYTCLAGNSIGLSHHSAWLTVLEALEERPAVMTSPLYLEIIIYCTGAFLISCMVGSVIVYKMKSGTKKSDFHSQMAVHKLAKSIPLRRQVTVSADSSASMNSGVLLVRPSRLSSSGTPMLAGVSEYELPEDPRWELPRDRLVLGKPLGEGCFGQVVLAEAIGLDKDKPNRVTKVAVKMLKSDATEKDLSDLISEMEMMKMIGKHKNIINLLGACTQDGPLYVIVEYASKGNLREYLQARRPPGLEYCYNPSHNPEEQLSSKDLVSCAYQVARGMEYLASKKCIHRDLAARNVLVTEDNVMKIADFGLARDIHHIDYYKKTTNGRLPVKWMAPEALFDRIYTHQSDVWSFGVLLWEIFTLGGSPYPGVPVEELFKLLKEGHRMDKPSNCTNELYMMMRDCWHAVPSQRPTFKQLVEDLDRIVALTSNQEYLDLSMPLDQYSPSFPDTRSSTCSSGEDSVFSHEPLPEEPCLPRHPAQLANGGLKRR
Test [4] addresses T1, MAPKAPK2 (Homo sapiens, UniProt P49137).
T1 construct: purchased Research Biology Corp. (http://www.reactionbiology.com)
The settings on record: read-out: percentage of the remaining kinase activity.

Test [5] deals with T2, RPS6KB1 (Homo sapiens, UniProt P23443).
T2 construct: purchased Research Biology Corp. (http://www.reactionbiology.com)
T2 sequence (P23443 whole entry): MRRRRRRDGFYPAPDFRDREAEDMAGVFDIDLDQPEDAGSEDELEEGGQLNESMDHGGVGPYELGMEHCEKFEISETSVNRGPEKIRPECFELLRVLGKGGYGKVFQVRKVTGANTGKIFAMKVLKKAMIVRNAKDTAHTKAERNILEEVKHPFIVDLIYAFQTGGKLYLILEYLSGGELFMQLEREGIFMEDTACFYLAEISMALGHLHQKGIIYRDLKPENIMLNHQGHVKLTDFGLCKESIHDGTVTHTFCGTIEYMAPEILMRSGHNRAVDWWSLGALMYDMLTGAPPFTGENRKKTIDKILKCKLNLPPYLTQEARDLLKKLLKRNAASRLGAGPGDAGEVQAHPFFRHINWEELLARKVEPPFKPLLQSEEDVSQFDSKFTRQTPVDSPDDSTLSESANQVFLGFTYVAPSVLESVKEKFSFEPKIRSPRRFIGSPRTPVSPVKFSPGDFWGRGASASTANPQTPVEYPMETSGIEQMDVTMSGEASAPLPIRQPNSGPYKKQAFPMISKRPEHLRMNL
The settings on record: read-out: percentage of the remaining kinase activity.

Test [6] concerns the target CAMK2D (Homo sapiens, UniProt Q13557). The settings on record: for remaining activity at 0.5 µM: read-out: percentage of the remaining kinase activity. An excerpt: (§1) Kinase Profiler services provided by […]. (http://www.reactionbiology.com) were used to analyze the data of the 9 type-S protein kinase inhibitors against the 40 types of protein kinases.

Test [7] addresses DYRK1A (Homo sapiens, UniProt Q13627). The settings on record: read-out: percentage of the remaining kinase activity.
From the text: as §1

Test [8] has as its target T3, PRKACA (Homo sapiens, UniProt P17612).
T3 construct: purchased Research Biology Corp. (http://www.reactionbiology.com)
The settings on record: read-out: percentage of the remaining kinase activity.
From the text: as §1

Test [9] concerns the target T4, SRPK1 (Homo sapiens, UniProt Q96SB4).
T4 construct: purchased Research Biology Corp. (http://www.reactionbiology.com)
The settings on record: read-out: percentage of the remaining kinase activity.
From the text: as §1

For test [10], the target named is T5, STK11 (Homo sapiens, UniProt Q15831).
T5 sequence (Q15831 1-433): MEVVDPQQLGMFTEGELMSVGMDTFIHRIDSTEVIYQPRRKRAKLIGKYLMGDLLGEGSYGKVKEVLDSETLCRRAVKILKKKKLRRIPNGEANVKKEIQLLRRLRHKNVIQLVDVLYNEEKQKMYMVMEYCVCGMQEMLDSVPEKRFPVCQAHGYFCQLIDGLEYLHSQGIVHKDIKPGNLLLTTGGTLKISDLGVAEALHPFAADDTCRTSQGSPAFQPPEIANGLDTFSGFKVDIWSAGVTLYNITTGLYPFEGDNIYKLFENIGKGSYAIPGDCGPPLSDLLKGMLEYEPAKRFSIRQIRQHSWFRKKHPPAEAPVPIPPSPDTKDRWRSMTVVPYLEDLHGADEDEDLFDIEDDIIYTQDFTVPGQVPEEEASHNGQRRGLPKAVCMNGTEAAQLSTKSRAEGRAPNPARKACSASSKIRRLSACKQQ
T5 sequence (Q7RTN6 1-431 partner): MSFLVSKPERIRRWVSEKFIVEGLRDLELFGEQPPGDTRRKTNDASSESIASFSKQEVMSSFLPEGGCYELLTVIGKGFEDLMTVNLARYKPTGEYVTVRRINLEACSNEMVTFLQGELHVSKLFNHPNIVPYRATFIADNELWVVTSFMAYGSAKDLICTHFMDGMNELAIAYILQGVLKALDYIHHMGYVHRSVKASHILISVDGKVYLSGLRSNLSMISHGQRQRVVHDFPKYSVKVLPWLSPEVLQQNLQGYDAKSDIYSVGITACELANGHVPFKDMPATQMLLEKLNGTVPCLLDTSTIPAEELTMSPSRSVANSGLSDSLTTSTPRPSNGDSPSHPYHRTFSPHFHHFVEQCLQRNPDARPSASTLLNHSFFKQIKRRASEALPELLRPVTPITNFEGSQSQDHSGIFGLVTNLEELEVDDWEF
T5 sequence (Q9Y376 1-341 partner): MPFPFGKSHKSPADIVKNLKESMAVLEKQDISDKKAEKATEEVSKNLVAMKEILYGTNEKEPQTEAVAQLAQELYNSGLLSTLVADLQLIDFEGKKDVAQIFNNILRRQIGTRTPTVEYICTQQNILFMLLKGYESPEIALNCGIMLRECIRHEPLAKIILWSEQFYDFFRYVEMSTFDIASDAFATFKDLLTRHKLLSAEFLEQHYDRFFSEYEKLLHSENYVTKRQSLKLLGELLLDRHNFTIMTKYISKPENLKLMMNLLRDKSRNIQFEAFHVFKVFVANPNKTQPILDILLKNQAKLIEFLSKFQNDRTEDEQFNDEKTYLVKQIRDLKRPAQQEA
The settings on record: read-out: percentage of the remaining kinase activity.
From the text: as §1

T4 sequence (Q96SB4 whole entry): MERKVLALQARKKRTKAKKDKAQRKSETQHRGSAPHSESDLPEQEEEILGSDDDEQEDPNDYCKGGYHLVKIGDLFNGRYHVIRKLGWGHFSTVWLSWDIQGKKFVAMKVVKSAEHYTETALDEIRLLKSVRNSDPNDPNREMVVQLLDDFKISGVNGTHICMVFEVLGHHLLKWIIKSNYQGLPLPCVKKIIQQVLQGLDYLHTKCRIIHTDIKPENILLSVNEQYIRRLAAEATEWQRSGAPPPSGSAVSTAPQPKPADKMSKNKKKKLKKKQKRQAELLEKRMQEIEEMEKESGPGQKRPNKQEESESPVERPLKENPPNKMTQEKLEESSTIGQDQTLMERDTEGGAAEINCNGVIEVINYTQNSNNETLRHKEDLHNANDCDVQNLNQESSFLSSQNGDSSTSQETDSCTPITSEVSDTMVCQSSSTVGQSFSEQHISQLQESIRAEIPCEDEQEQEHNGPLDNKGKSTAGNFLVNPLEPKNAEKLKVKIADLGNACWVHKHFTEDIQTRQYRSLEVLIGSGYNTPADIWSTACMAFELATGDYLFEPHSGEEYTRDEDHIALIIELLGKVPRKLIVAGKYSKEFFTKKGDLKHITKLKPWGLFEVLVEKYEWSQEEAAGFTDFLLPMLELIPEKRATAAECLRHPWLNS
Chain of CAMK2D (Q13557 whole entry): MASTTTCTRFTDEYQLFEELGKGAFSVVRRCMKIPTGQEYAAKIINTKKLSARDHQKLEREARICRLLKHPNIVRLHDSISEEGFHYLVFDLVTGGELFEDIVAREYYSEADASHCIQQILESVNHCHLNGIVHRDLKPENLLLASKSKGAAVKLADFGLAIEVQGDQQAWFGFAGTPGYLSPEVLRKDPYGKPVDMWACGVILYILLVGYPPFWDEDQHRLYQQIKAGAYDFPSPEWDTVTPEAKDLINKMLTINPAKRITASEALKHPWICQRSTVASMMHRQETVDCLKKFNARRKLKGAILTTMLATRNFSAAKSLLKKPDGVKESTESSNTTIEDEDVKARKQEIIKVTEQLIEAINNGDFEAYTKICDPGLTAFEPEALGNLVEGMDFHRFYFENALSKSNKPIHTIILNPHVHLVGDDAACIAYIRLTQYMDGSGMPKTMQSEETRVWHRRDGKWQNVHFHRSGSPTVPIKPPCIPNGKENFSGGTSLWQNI
T1 sequence (P49137 whole entry): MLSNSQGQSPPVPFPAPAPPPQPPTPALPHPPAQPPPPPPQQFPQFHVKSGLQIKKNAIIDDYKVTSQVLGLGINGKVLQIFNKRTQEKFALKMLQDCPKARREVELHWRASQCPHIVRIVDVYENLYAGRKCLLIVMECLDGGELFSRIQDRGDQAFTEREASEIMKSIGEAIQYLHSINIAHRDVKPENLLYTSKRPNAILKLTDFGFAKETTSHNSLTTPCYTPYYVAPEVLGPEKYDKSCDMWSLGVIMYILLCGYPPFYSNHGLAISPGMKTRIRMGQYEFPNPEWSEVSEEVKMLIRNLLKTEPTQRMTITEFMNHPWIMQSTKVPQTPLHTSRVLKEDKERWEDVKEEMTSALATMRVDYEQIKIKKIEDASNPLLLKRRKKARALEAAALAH

As usually defined, the remaining activity is the signal under treatment as a percentage of the control signal. Take `COC1C(N(C)C(=O)C(N)Cc2c[nH]cn2)CC2OC1(C)n1c3ccccc3c3c4c(c5c6ccccc6n2c5c31)C(=O)NC4` (centres unmarked) [Compound 1]: the remaining activity at 0.5 µM is 2.1% in test [1] (LCK, inhibitor at 500 nM); 30.3% in [2] (CHEK2, inhibitor at 500 nM); 5.1% in [3] (FGFR1, inhibitor at 500 nM); 73.3% in [4] (MAPKAPK2, inhibitor at 500 nM); 7.9% in test [5] (RPS6KB1, inhibitor at 500 nM); 2% in test [6] (CAMK2D, inhibitor at 500 nM). The remaining activity at 0.5 µM in test [7] (DYRK1A, inhibitor at 500 nM) was determined as 0.4%; in [8] (PRKACA, inhibitor at 500 nM), 13.9%; in test [9] (SRPK1, inhibitor at 500 nM) it was 24.4%; in [10] (STK11, inhibitor at 500 nM) it was 88.7%.

By IC50 is commonly meant the concentration needed to halve the response being measured. Read a high IC50 as a need for much substance. On to `COC1C(N(C)C(=O)C(N)Cc2cn(C(=O)OC(C)(C)C)c3ccccc23)CC2OC1(C)n1c3ccccc3c3c4c(c5c6ccccc6n2c5c31)C(=O)NC4` (centres unmarked) [Compound 2], for which the remaining activity at 0.5 µM in [1] (LCK, inhibitor at 500 nM) worked out at 97%; in [2] (CHEK2, inhibitor at 500 nM), 95.8%; in test [3] (FGFR1, inhibitor at 500 nM), 101%; in test [4] (MAPKAPK2, inhibitor at 500 nM), 106%; in [5] (RPS6KB1, inhibitor at 500 nM) it was 72.4%; in test [6] (CAMK2D, inhibitor at 500 nM), 16.1%. The remaining activity at 0.5 µM in test [7] (DYRK1A, inhibitor at 500 nM) was determined as 88.6%; in [8] (PRKACA, inhibitor at 500 nM), 81.1%; in [9] (SRPK1, inhibitor at 500 nM), 95.7%; in test [10] (STK11, inhibitor at 500 nM), 106%. The compound also registered an IC50 in test [6] (CAMK2D, inferred from test at 500 nM (FIG. 1)) of less than 500 nM.

In the case of `COC1C(N(C)C(=O)C(N)Cc2ccc(OC(C)(C)C)cc2)CC2OC1(C)n1c3ccccc3c3c4c(c5c6ccccc6n2c5c31)C(=O)NC4` (centres unmarked) [Compound 4], the remaining activity at 0.5 µM in test [1] (LCK, inhibitor at 500 nM) turned out to be 68.8%; in [2] (CHEK2, inhibitor at 500 nM), 80.4%; in test [3] (FGFR1, inhibitor at 500 nM), 53.3%; in test [4] (MAPKAPK2, inhibitor at 500 nM), 108%; in test [5] (RPS6KB1, inhibitor at 500 nM), 15.2%; in [6] (CAMK2D, inhibitor at 500 nM), 6.7%. The remaining activity at 0.5 µM stood at 17.8% in test [7] (DYRK1A, inhibitor at 500 nM); 38.3% in [8] (PRKACA, inhibitor at 500 nM); 85% in [9] (SRPK1, inhibitor at 500 nM); 113% in test [10] (STK11, inhibitor at 500 nM).

In the case of `COC1C(N(C)C(=O)C(N)Cc2ccc(O)cc2)CC2OC1(C)n1c3ccccc3c3c4c(c5c6ccccc6n2c5c31)C(=O)NC4` (centres unmarked) [Compound 5], the remaining activity at 0.5 µM is 11.5% in test [1] (LCK, inhibitor at 500 nM); 73.2% in test [2] (CHEK2, inhibitor at 500 nM); 16.6% in test [3] (FGFR1, inhibitor at 500 nM); 95.3% in [4] (MAPKAPK2, inhibitor at 500 nM); 11.8% in test [5] (RPS6KB1, inhibitor at 500 nM); 10.1% in test [6] (CAMK2D, inhibitor at 500 nM). For the same compound, the remaining activity at 0.5 µM was 0.6% in test [7] (DYRK1A, inhibitor at 500 nM); 32.6% in test [8] (PRKACA, inhibitor at 500 nM); 61.1% in test [9] (SRPK1, inhibitor at 500 nM); 102% in test [10] (STK11, inhibitor at 500 nM).

`COC1C(N(C)C(=O)C(N)CCC(=O)OC(C)(C)C)CC2OC1(C)n1c3ccccc3c3c4c(c5c6ccccc6n2c5c31)C(=O)NC4` (centres unmarked) [Compound 6]: the remaining activity at 0.5 µM was 44% in [1] (LCK, inhibitor at 500 nM); 82.7% in [2] (CHEK2, inhibitor at 500 nM); 29.5% in test [3] (FGFR1, inhibitor at 500 nM); 105% in test [4] (MAPKAPK2, inhibitor at 500 nM); 15% in test [5] (RPS6KB1, inhibitor at 500 nM); 12.7% in test [6] (CAMK2D, inhibitor at 500 nM). Further, the remaining activity at 0.5 µM in test [7] (DYRK1A, inhibitor at 500 nM) was 13.8%; in [8] (PRKACA, inhibitor at 500 nM) it was 40.8%; in [9] (SRPK1, inhibitor at 500 nM), 65.3%; in test [10] (STK11, inhibitor at 500 nM), 104%.

Take `COC1C(N(C)C(=O)C(N)CCC(=O)O)CC2OC1(C)n1c3ccccc3c3c4c(c5c6ccccc6n2c5c31)C(=O)NC4` (centres unmarked) [Compound 7]: the remaining activity at 0.5 µM in test [1] (LCK, inhibitor at 500 nM) came to 3%; in test [2] (CHEK2, inhibitor at 500 nM), 47.2%; in [3] (FGFR1, inhibitor at 500 nM), 3.2%; in [4] (MAPKAPK2, inhibitor at 500 nM) it was 91.8%; in test [5] (RPS6KB1, inhibitor at 500 nM) it was 9.2%; in test [6] (CAMK2D, inhibitor at 500 nM), 2.3%. Also, the remaining activity at 0.5 µM was 0.6% in test [7] (DYRK1A, inhibitor at 500 nM); 18.6% in [8] (PRKACA, inhibitor at 500 nM); 38.9% in test [9] (SRPK1, inhibitor at 500 nM); 79.9% in test [10] (STK11, inhibitor at 500 nM).

On to `COC1C(N(C)CCOc2cccc([N+](=O)[O-])c2)CC2OC1(C)n1c3ccccc3c3c4c(c5c6ccccc6n2c5c31)C(=O)NC4` (centres unmarked) [Compound 8], for which the remaining activity at 0.5 µM in [1] stood at 24%; in test [2], 46.7%; in [3], 30.1%; in test [4], 94.6%; in test [5] it was 11.8%; in test [6], 0.3%. Moreover, the remaining activity at 0.5 µM turned out to be 25.3% in test [7], 26.4% in test [8], 78.3% in test [9] and 101% in test [10].

In the case of `COC1C(N(C)Cc2ccc(-c3ccccc3)cc2)CC2OC1(C)n1c3ccccc3c3c4c(c5c6ccccc6n2c5c31)C(=O)NC4` (centres unmarked) [Compound 9], the remaining activity at 0.5 µM in test [1] (LCK, inhibitor at 500 nM) turned out to be 14%; in test [2] (CHEK2, inhibitor at 500 nM), 37.7%; in [3] (FGFR1, inhibitor at 500 nM), 25.7%; in test [4] (MAPKAPK2, inhibitor at 500 nM) it was 92.5%; in test [5] (RPS6KB1, inhibitor at 500 nM), 11.1%; in test [6] (CAMK2D, inhibitor at 500 nM) it was 1.1%. For the same compound, the remaining activity at 0.5 µM came to 18.5% in test [7] (DYRK1A, inhibitor at 500 nM); 24.6% in test [8] (PRKACA, inhibitor at 500 nM); 78.5% in test [9] (SRPK1, inhibitor at 500 nM); 91.9% in test [10] (STK11, inhibitor at 500 nM).

`CN[C@@H]1C[C@H]2O[C@@](C)([C@@H]1OC)n1c3ccccc3c3c4c(c5c6ccccc6n2c5c31)C(=O)NC4` [STU, staurosporine, reference compound]: the remaining activity at 0.5 µM was determined as 0.4% in test [6] and 17.7% in test [9] (SRPK1, inhibitor at 500 nM).
